For 19 compounds, IC50 results are on record in patent US11759462B2, “Spirocyclic compounds as tryptophan hydroxylase inhibitors” (priority 2013, dated 2023).

For the assay, the target named is T1, Recombinant human TPH1 (MBP tagged) (Homo sapiens, UniProt P17752).
T1 construct: cloning full length human TPH1 cDNA in to a bacterial pMAL-c5E expression vector; made in house; host or cells: E. coli BL21 (DE3)
T1 sequence (P17752 1-444): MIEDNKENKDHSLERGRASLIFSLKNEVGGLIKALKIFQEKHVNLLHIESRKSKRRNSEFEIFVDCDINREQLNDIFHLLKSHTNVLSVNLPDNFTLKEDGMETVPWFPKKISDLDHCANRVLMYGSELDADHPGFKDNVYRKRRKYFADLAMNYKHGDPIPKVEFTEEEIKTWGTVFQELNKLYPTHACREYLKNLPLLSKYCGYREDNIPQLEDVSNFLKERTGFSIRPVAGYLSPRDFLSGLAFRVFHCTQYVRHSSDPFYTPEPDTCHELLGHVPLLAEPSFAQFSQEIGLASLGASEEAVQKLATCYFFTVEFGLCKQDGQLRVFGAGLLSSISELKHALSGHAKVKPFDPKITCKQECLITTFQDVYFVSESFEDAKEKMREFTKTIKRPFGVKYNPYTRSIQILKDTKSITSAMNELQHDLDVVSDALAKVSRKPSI
The experiment in a line: TPH1 in vitro inhibition assay (kinetic fluorescence). The format is biochemical. The following applies: read-out: TPH1 Range (TPH1 inhibition IC50). In a few lines:
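Final mix: 15 nM MBP-TPH1, 30 μM Trp, 36 μM 6-methyltetrahydropterin, 25 μM ferrous ammonium sulfate, 50 mM MES pH 7.1, 1% DMSO, room temperature.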

The IC50 is the concentration that gives 50% inhibition. As to `Cc1ccn(-c2cc(-c3ccc(-c4nnc(C)o4)c(F)c3)ccc2[C@@H](Oc2cc(N3CCC4(CC3)CN[C@H](C(=O)O)C4)nc(N)n2)C(F)(F)F)n1` [Example 1cb, (S)-8-(2-amino-6-((R)-2,2,2-trifluoro-1-(3′-fluoro-4′-(5-methyl-1,3,4-oxadiazol-2-yl)-3-(3-methyl-1H-pyrazol-1-yl)-[1,1′-biphenyl]-4-yl)ethoxy)pyrimidin-4-yl)-2,8-diazaspiro[4.5]decane-3-carboxylic acid], the IC50 was less than 50 nM.
For `Cc1ccn(-c2cc(-c3ccc(S(C)(=O)=O)cc3)ccc2[C@@H](Oc2cc(N3CCC4(CC3)CN[C@H](C(=O)O)C4)nc(N)n2)C(F)(F)F)n1` [Example 1cc, (S)-8-(2-amino-6-((R)-2,2,2-trifluoro-1-(3-(3-methyl-1H-pyrazol-1-yl)-4′-(methylsulfonyl)-[1,1′-biphenyl]-4-yl)ethoxy)pyrimidin-4-yl)-2,8-diazaspiro[4.5]decane-3-carboxylic acid] the value was less than 50 nM; for `CCCOc1ccc(-c2ccc([C@@H](Oc3cc(N4CCC5(CC4)CN[C@H](C(=O)O)C5)nc(N)n3)C(F)(F)F)c(-n3ccc(C)n3)c2)cc1` [Example 1cd, (S)-8-(2-amino-6-((R)-2,2,2-trifluoro-1-(3-(3-methyl-1H-pyrazol-1-yl)-4′-propoxy-[1,1′-biphenyl]-4-yl)ethoxy)pyrimidin-4-yl)-2,8-diazaspiro[4.5]decane-3-carboxylic acid], less than 50 nM.
For `Cc1ccn(-c2cc(-c3ccc(C(=O)NCCN4CCOCC4)cc3)ccc2[C@@H](Oc2cc(N3CCC4(CC3)CN[C@H](C(=O)O)C4)nc(N)n2)C(F)(F)F)n1` [Example 1ce, (S)-8-(2-amino-6-((R)-2,2,2-trifluoro-1-(3-(3-methyl-1H-pyrazol-1-yl)-4′-((2-morpholinoethyl)carbamoyl)-[1,1′-biphenyl]-4-yl)ethoxy)pyrimidin-4-yl)-2,8-diazaspiro[4.5]decane-3-carboxylic acid] the value was less than 50 nM.
In the case of `Cc1ccn(-c2cc(-c3ccc(S(N)(=O)=O)cc3)ccc2[C@@H](Oc2cc(N3CCC4(CC3)CN[C@H](C(=O)O)C4)nc(N)n2)C(F)(F)F)n1` [Example 1cf, (S)-8-(2-amino-6-((R)-2,2,2-trifluoro-1-(3-(3-methyl-1H-pyrazol-1-yl)-4′-sulfamoyl-[1,1′-biphenyl]-4-yl)ethoxy)pyrimidin-4-yl)-2,8-diazaspiro[4.5]decane-3-carboxylic acid], the IC50 is 50 to 300 nM.
Next, `Cc1ccn(-c2cc(-c3ccc(C(N)=O)cc3)ccc2[C@@H](Oc2cc(N3CCC4(CC3)CN[C@H](C(=O)O)C4)nc(N)n2)C(F)(F)F)n1` [Example 1cg, (S)-8-(2-amino-6-((R)-1-(4′-carbamoyl-3-(3-methyl-1H-pyrazol-1-yl)-[1,1′-biphenyl]-4-yl)-2,2,2-trifluoroethoxy)pyrimidin-4-yl)-2,8-diazaspiro[4.5]decane-3-carboxylic acid]: less than 50 nM.
For `CNC(=O)c1ccc(-c2ccc([C@@H](Oc3cc(N4CCC5(CC4)CN[C@H](C(=O)O)C5)nc(N)n3)C(F)(F)F)c(-n3ccc(C)n3)c2)cc1` [Example 1ch, (S)-8-(2-amino-6-((R)-2,2,2-trifluoro-1-(3-(3-methyl-1H-pyrazol-1-yl)-4′-(methylcarbamoyl)-[1,1′-biphenyl]-4-yl)ethoxy)pyrimidin-4-yl)-2,8-diazaspiro[4.5]decane-3-carboxylic acid] the value was 50 to 300 nM; for `COc1ccc(-c2ccc([C@@H](Oc3cc(N4CCC5(CC4)CN[C@H](C(=O)O)C5)nc(N)n3)C(F)(F)F)c(-n3ccc(C)n3)c2)cc1F` [Example 1ci, (S)-8-(2-amino-6-((R)-2,2,2-trifluoro-1-(3′-fluoro-4′-methoxy-3-(3-methyl-1H-pyrazol-1-yl)-[1,1′-biphenyl]-4-yl)ethoxy)pyrimidin-4-yl)-2,8-diazaspiro[4.5]decane-3-carboxylic acid], less than 50 nM.
`Cc1ccn(-c2cc(-c3ccc(C(=O)N4CCNCC4)cc3)ccc2[C@@H](Oc2cc(N3CCC4(CC3)CN[C@H](C(=O)O)C4)nc(N)n2)C(F)(F)F)n1` [Example 1cj, (S)-8-(2-amino-6-((R)-2,2,2-trifluoro-1-(3-(3-methyl-1H-pyrazol-1-yl)-4′-(piperazine-1-carbonyl)-[1,1′-biphenyl]-4-yl)ethoxy)pyrimidin-4-yl)-2,8-diazaspiro[4.5]decane-3-carboxylic acid]: the IC50 is less than 50 nM.
With `Cc1ccn(-c2cc(-c3ccc(C(=O)N(C)C)cc3)ccc2[C@@H](Oc2cc(N3CCC4(CC3)CN[C@H](C(=O)O)C4)nc(N)n2)C(F)(F)F)n1` [Example 1ck, (S)-8-(2-amino-6-((R)-1-(4′-(dimethylcarbamoyl)-3-(3-methyl-1H-pyrazol-l-y)-[1,1′-biphenyl]-4-yl)-2,2,2-trifluoroethoxy)pyrimidin-4-yl)-2,8-diazaspiro[4.5]decane-3-carboxylic acid], the IC50 was less than 50 nM.
Next, `Cc1ccn(-c2cc(-c3ccc(OCC(C)C)cc3)ccc2[C@@H](Oc2cc(N3CCC4(CC3)CN[C@H](C(=O)O)C4)nc(N)n2)C(F)(F)F)n1` [Example 1cl, (S)-8-(2-amino-6-((R)-2,2,2-trifluoro-1-(4′-isobutoxy-3-(3-methyl-1H-pyrazol-1-yl)-[1,1′-biphenyl]-4-yl)ethoxy)pyrimidin-4-yl)-2,8-diazaspiro[4.5]decane-3-carboxylic acid]: less than 50 nM; `CCN(CC)C(=O)c1ccc(-c2ccc([C@@H](Oc3cc(N4CCC5(CC4)CN[C@H](C(=O)O)C5)nc(N)n3)C(F)(F)F)c(-n3ccc(C)n3)c2)cc1` [Example 1cm, (S)-8-(2-amino-6-((R)-1-(4′-(diethylcarbamoyl)-3-(3-methyl-1H-pyrazol-1-yl)-[l,l′-biphenyl]-4-yl)-2,2,2-trifluoroethoxy)pyrimidin-4-yl)-2,8-diazaspiro[4.5]decane-3-carboxylic acid]: less than 50 nM; `Cc1ccn(-c2cc(-c3ccc(OCC(C)(C)C)cc3)ccc2[C@@H](Oc2cc(N3CCC4(CC3)CN[C@H](C(=O)O)C4)nc(N)n2)C(F)(F)F)n1` [Example 1cn, (S)-8-(2-amino-6-((R)-2,2,2-trifluoro-1-(3-(3-methyl-1H-pyrazol-1-yl)-4′-(neopentyloxy)-[1,1′-biphenyl]-4-yl)ethoxy)pyrimidin-4-yl)-2,8-diazaspiro[4.5]decane-3-carboxylic acid]: less than 50 nM.
Next, `Cc1ccn(-c2cc(-c3ccc4c(c3)CCCO4)ccc2[C@@H](Oc2cc(N3CCC4(CC3)CN[C@H](C(=O)O)C4)nc(N)n2)C(F)(F)F)n1` [Example 1co, (S)-8-(2-amino-6-((R)-1-(4-(chroman-6-yl)-2-(3-methyl-1H-pyrazol-1-yl)phenyl)-2,2,2-trifluoroethoxy)pyrimidin-4-yl)-2,8-diazaspiro[4.5]decane-3-carboxylic acid]: less than 50 nM; `Cc1ccn(-c2cc(-c3ccc(C)c(CO)c3)ccc2[C@@H](Oc2cc(N3CCC4(CC3)CN[C@H](C(=O)O)C4)nc(N)n2)C(F)(F)F)n1` [Example 1cq, (S)-8-(2-amino-6-((R)-2,2,2-trifluoro-1-(3′-(hydroxymethyl)-4′-methyl-3-(3-methyl-1H-pyrazol-1-yl)-[1,1′-biphenyl]-4-yl)ethoxy)pyrimidin-4-yl)-2,8-diazaspiro[4.5]decane-3-carboxylic acid]: less than 50 nM; `Cc1ccn(-c2cc(-c3ccc(CO)c(C)c3)ccc2[C@@H](Oc2cc(N3CCC4(CC3)CN[C@H](C(=O)O)C4)nc(N)n2)C(F)(F)F)n1` [Example 1cr, (S)-8-(2-amino-6-((R)-2,2,2-trifluoro-1-(4′-(hydroxymethyl)-3′-methyl-3-(3-methyl-1H-pyrazol-1-yl)-[1,1′-biphenyl]-4-yl)ethoxy)pyrimidin-4-yl)-2,8-diazaspiro[4.5]decane-3-carboxylic acid]: less than 50 nM.
Next, `CCOc1ccc(-c2ccc([C@@H](Oc3cc(N4CCC5(CC4)CN[C@H](C(=O)O)C5)nc(N)n3)C(F)(F)F)c(-n3ccc(C)n3)c2)cn1` [Example 1cs, (S)-8-(2-amino-6-((R)-1-(4-(6-ethoxypyridin-3-yl)-2-(3-methyl-1H-pyrazol-1-yl)phenyl)-2,2,2-trifluoroethoxy)pyrimidin-4-yl)-2,8-diazaspiro[4.5]decane-3-carboxylic acid]: less than 50 nM.
Consider `Cc1ccn(-c2cc(-c3cccc(C(=O)O)c3)ccc2[C@@H](Oc2cc(N3CCC4(CC3)CN[C@H](C(=O)O)C4)nc(N)n2)C(F)(F)F)n1` [Example 1d, (S)-8-(2-amino-6-((R)-1-(3′-carboxy-3-(3-methyl-1H-pyrazol-1-yl)-[1,1′-biphenyl]-4-yl)-2,2,2-trifluoroethoxy)pyrimidin-4-yl)-2,8-diazaspiro[4.5]decane-3-carboxylic acid], for which the IC50 is less than 50 nM.
Next, `Cc1ccn(-c2cc(C3=CCNCC3)ccc2[C@@H](Oc2cc(N3CCC4(CC3)CN[C@H](C(=O)O)C4)nc(N)n2)C(F)(F)F)n1` [Example 1f, (S)-8-(2-amino-6-((R)-2,2,2-trifluoro-1-(2-(3-methyl-1H-pyrazol-1-yl)-4-(1,2,3,6-tetrahydropyridin-4-yl)phenyl)ethoxy)pyrimidin-4-yl)-2,8-diazaspiro[4.5]decane-3-carboxylic acid]: 50 to 300 nM.
